Reference: patent publication US20220031840A1, “Method of Treatment” (HaemaLogix Pty Ltd, priority 2018, published 2022)

Key:
Assay type in all cases: in vivo, human
[1] = system: serum κFLC; assay: Serum κFLC pharmacodynamics (FreeLite assay)
From the text: (§1) Serum FLC levels were quantified using the FreeLite™ assay (The Binding Site Group Ltd, Birmingham, UK). […] Twenty-four-hour urine collection for urine protein electrophoresis immunofixation, urine FLC measurement (FreeLite™ assay), and creatinine clearance were collected on the day of infusion and on Day 45.

[2] = system: urine κFLC; assay: 24-hour urine κFLC (FreeLite assay)
From the text: as §1

[3] = system: G-CSF; assay: Biomarker analysis: serum G-CSF; settings: adjusted for cytokine baseline differences
Protocol: Patient serum samples for biomarker analysis were collected approximately 30 minutes before infusion of kappamab and then at 6, 48, 192, and 1,080 hours after infusion for all patients. Samples were analysed in triplicate and serum levels of 48 human cytokines, chemokines, and growth factors were measured using the Bio-Plex Pro™ Human Cytokine 27-plex and 21-plex assays according to the manufacturer's recommendations (Bio-Rad, Carlsbad, Calif., USA; Cat No M10-0KCAF0Y, mg0-005KMII). Results were verified by repeating the 21-plex assay in triplicate and the samples were randomized across the assay plate. Pre-infusion samples were used as the baseline (t=0) for the analysis.
Multivariate analysis of the biomarker data was performed using R version 3.1.0 (2014-04-10) software (http://www.R-project.org/). Linear mixed effects modelling was completed using 1me4 (Bates et al. 2015). […]
To find significance between kappamab dose, time, and cytokine expression levels, we fitted a linear mixed-effects model that modelled cytokine fluorescence expression levels with fixed-effects terms for baseline cytokine fluorescence expression, kappamab dose (with 4 levels: 0.3, 1.0, 3.0, and 10 mg/kg), time (treated as factor with 5 levels), and cytokine with 48 levels, plus their interactions, with a random effect associated with patient (12 levels) and plex (2 levels). […]

[4] = system: serum M protein; assay: Serum M protein after kappamab

## kappamab: humanized form of K121 anti-KMA antibody; VH SEQ ID NO: 1, VL SEQ ID NO: 2
[1]; Patient 2, during the study
  Serum κFLC higher than baseline: up to 136%
[1]; Patient 7, Day 1
  Serum κFLC higher than baseline: 83%
[1]; Patient 7, Day 30
  Serum κFLC increase from baseline: 178%
[1]; Patient 7, Day 45
  Serum κFLC increase from baseline: 198%
[1]; Patient 7, by Day 105 post infusion
  Serum κFLC versus baseline: returned to below baseline
[1]; Patient 13, 6 hours after IV infusion
  Serum κFLC increase from baseline: 690%
[1]; Patient 13, Day 45, remained for 3 months
  Serum κFLC below baseline: 55%
[1]; after Day 15, 8/12 patients
  Patients with decreases in serum κFLC below baseline: 67%
[1]; all patients
  Change in serum κFLC levels following IV infusion: increase
[1]; by Day 45, majority of patients
  Serum κFLC versus baseline: generally similar to baseline values
[1]; in vivo
  Dose dependency between serum κFLC increase and kappamab concentration: no clear dose dependency
[2]; Day 1, 8/12 patients
  Patients with a decrease in urine κFLC: 67%
[2]; Day 45 post infusion, 7/12 patients
  Patients with a decrease in urine κFLC: 58%
[2]; Patient 1, Day 1
  Urine κFLC: 144 mg/24 hours
  Urine κFLC percent change from baseline: −31%
[2]; Patient 1, Day 45
  Urine κFLC: 107 mg/24 hours
  Urine κFLC percent change from baseline: −49%
[2]; Patient 2, Day 1
  Urine κFLC: 1902 mg/24 hours
  Urine κFLC percent change from baseline: −27%
[2]; Patient 2, Day 45
  Urine κFLC percent change from baseline: −13%
[2]; Patient 2, Day 45, exceeds upper limit of quantitation
  Urine κFLC: > 2272 mg/24 hours
[2]; Patient 3, Day 1
  Urine κFLC: 1143 mg/24 hours
  Urine κFLC percent change from baseline: −15%
[2]; Patient 3, Day 45
  Urine κFLC: 5964 mg/24 hours
  Urine κFLC percent change from baseline: +343%
[2]; Patient 4, Day 1
  Urine κFLC: 24 mg/24 hours
  Urine κFLC percent change from baseline: +85%
[2]; Patient 4, Day 45
  Urine κFLC: 18 mg/24 hours
  Urine κFLC percent change from baseline: +38%
[2]; Patient 5, Day 1
  Urine κFLC: 31 mg/24 hours
  Urine κFLC percent change from baseline: −68%
[2]; Patient 5, Day 45
  Urine κFLC: 103 mg/24 hours
  Urine κFLC percent change from baseline: +6%
[2]; Patient 6, Day 1
  Urine κFLC: 38 mg/24 hours
  Urine κFLC percent change from baseline: −17%
[2]; Patient 6, Day 45
  Urine κFLC: 45 mg/24 hours
  Urine κFLC percent change from baseline: −2%
[2]; Patient 7, Day 1
  Urine κFLC: 390 mg/24 hours
  Urine κFLC percent change from baseline: +25%
[2]; Patient 7, Day 45
  Urine κFLC: 286 mg/24 hours
  Urine κFLC percent change from baseline: −8%
[2]; Patient 8, Day 1
  Urine κFLC: 34 mg/24 hours
  Urine κFLC percent change from baseline: +278%
[2]; Patient 8, Day 45
  Urine κFLC: 25 mg/24 hours
  Urine κFLC percent change from baseline: +178%
[2]; Patient 9, Day 1
  Urine κFLC: 49 mg/24 hours
  Urine κFLC percent change from baseline: −13%
[2]; Patient 9, Day 45
  Urine κFLC: 39 mg/24 hours
  Urine κFLC percent change from baseline: −30%
[2]; Patient 10, Day 1
  Urine κFLC: 13 mg/24 hours
  Urine κFLC percent change from baseline: −69%
[2]; Patient 10, Day 45
  Urine κFLC: 40 mg/24 hours
  Urine κFLC percent change from baseline: −5%
[2]; Patient 12, Day 1
  Urine κFLC: 297 mg/24 hours
  Urine κFLC percent change from baseline: −9%
[2]; Patient 12, Day 45
  Urine κFLC: 363 mg/24 hours
  Urine κFLC percent change from baseline: +11%
[2]; Patient 13, Day 1
  Urine κFLC: 166 mg/24 hours
  Urine κFLC percent change from baseline: +12%
[2]; Patient 13, Day 45
  Urine κFLC: 29 mg/24 hours
  Urine κFLC percent change from baseline: −80%
[2]; within each dose cohort
  Dose-related trend in urinary excretion of κFLC: no consistent dose-related trend
[3]
  Change in serum concentration: dose-related decreases
[4]; 7/11 patients
  Patients with minor dose-related decreases in serum M protein: 64%
[4]; in vivo
  Serum M protein response versus IMWG response criteria: did not meet the IMWG response criteria
